Where two headings read alike, the source gives them in different places.
Test system: MDRAB
Assay: Checkerboard assay (combined-use MIC, FIC)
Format: cell-based, Acinetobacter baumannii
Details: for FIC, all strains / MIC50 of the antibiotic after combined use / MIC90 of the antibiotic after combined use / reduction of the antibiotic's MIC50 vs single use / reduction of the antibiotic's MIC90 vs single use / share of strains with FIC ≤ 0.5: 20 MDRABs; for MIC: Acinetobacter baumannii, read-out: single-use MIC
Method: Test methods of the sensibilization effects of the test product to similar antibiotics: it is operated by referring to a checkerboard assay recommended by NCCLS.
The checkerboard assay is performed in a 96-pore sterile culture plate.
Calculation of a Fractional Inhibitory Concentration (FIC): FIC=S20b combined-use MIC/S20b single-use MIC+antibiotic combined-use MIC/antibiotic single-use MIC. By calculating the FIC, the combined antibacterial interaction between the EA and the antibiotic is evaluated, with synergistic effect for FIC≤0.5, additive effect for 0.5<FIC≤1, indifferent effect for 1<FIC≤2 and antagonistic effect for FIC>2. According to a sterile growth pore, the optimum concentration ratio between the EA and the antibiotic is founded out. At last, the effect of the EA to strengthen the efficacy of the antibiotic is evaluated.

[1] = antibiotic with 60% ethanol extract
[2] = antibiotic with 95% ethanol extract
[3] = antibiotic with EA (10% ethanol extract)
[4] = antibiotic with EA (water extract)

C[C@H]1COc2c(N3CCN(C)CC3)c(F)cc3c(=O)c(C(=O)O)cn1c23 [LVX, Levofloxacin]
FIC, all strains [1]: ≤ 2
MIC50 of the antibiotic after combined use [1]: 4 µg/mL
MIC90 of the antibiotic after combined use [1]: 8 µg/mL
reduction of the antibiotic's MIC50 vs single use [1]: 50%
reduction of the antibiotic's MIC90 vs single use [1]: 75%
share of strains with FIC ≤ 0.5 [1]: 5%
FIC, all strains [2]: ≤ 2
MIC50 of the antibiotic after combined use [2]: 4 µg/mL
MIC90 of the antibiotic after combined use [2]: 8 µg/mL
reduction of the antibiotic's MIC50 vs single use [2]: 50%
reduction of the antibiotic's MIC90 vs single use [2]: 75%
share of strains with FIC ≤ 0.5 [2]: 20%
FIC, all strains [3]: ≤ 2
MIC50 of the antibiotic after combined use [3]: 4 µg/mL
MIC90 of the antibiotic after combined use [3]: 8 µg/mL
reduction of the antibiotic's MIC50 vs single use [3]: 50%
reduction of the antibiotic's MIC90 vs single use [3]: 75%
share of strains with FIC ≤ 0.5 [3]: 25%
FIC, all strains [4]: ≤ 2
MIC50 of the antibiotic after combined use [4]: 2 µg/mL
MIC90 of the antibiotic after combined use [4]: 8 µg/mL
reduction of the antibiotic's MIC50 vs single use [4]: 75%
reduction of the antibiotic's MIC90 vs single use [4]: 75%
share of strains with FIC ≤ 0.5 [4]: 35%
MIC (strain A1, EA=10% ethanol extract): 0.5 µg/mL
MIC (strain A1, EA=60% ethanol extract): 0.5 µg/mL
MIC (strain A2, EA=10% ethanol extract): 16 µg/mL
MIC (strain A2, EA=60% ethanol extract): 16 µg/mL
MIC (strain A3, EA=10% ethanol extract): 16 µg/mL
MIC (strain A3, EA=60% ethanol extract): 16 µg/mL
MIC (strain A4, EA=10% ethanol extract): 0.5 µg/mL
MIC (strain A4, EA=60% ethanol extract): 0.5 µg/mL
MIC (strain A5, EA=10% ethanol extract): 4 µg/mL
MIC (strain A5, EA=60% ethanol extract): 4 µg/mL
MIC (strain A6, EA=10% ethanol extract): 8 µg/mL
MIC (strain A6, EA=60% ethanol extract): 8 µg/mL
MIC (strain A7, EA=10% ethanol extract): 8 µg/mL
MIC (strain A7, EA=60% ethanol extract): 8 µg/mL
MIC (strain A8, EA=10% ethanol extract): 4 µg/mL
MIC (strain A8, EA=60% ethanol extract): 4 µg/mL
MIC (strain A9, EA=10% ethanol extract): 4 µg/mL
MIC (strain A9, EA=60% ethanol extract): 4 µg/mL
MIC (strain A10, EA=10% ethanol extract): 32 µg/mL
MIC (strain A10, EA=60% ethanol extract): 32 µg/mL
MIC (strain A11, EA=10% ethanol extract): 4 µg/mL
MIC (strain A11, EA=60% ethanol extract): 4 µg/mL
MIC (strain A12, EA=10% ethanol extract): 32 µg/mL
MIC (strain A12, EA=60% ethanol extract): 32 µg/mL
MIC (strain A13, EA=10% ethanol extract): 32 µg/mL
MIC (strain A13, EA=60% ethanol extract): 32 µg/mL
MIC (strain A14, EA=10% ethanol extract): 16 µg/mL
MIC (strain A14, EA=60% ethanol extract): 16 µg/mL
MIC (strain A15, EA=10% ethanol extract): 32 µg/mL
MIC (strain A15, EA=60% ethanol extract): 32 µg/mL
MIC (strain A16, EA=10% ethanol extract): 8 µg/mL
MIC (strain A16, EA=60% ethanol extract): 8 µg/mL
MIC (strain A17, EA=10% ethanol extract): 16 µg/mL
MIC (strain A17, EA=60% ethanol extract): 16 µg/mL
MIC (strain A18, EA=10% ethanol extract): 8 µg/mL
MIC (strain A18, EA=60% ethanol extract): 8 µg/mL
MIC (strain A19, EA=10% ethanol extract): 16 µg/mL
MIC (strain A19, EA=60% ethanol extract): 16 µg/mL
MIC (strain A20, EA=10% ethanol extract): 16 µg/mL
MIC (strain A20, EA=60% ethanol extract): 16 µg/mL
combined-use MIC (strain A1, EA (10% ethanol extract) + LVX combined): 0.0625 µg/mL
combined-use MIC (strain A1, EA (60% ethanol extract) + LVX combined): 0.0625 µg/mL
combined-use MIC (strain A1, EA (P. clypearia 95% ethanol extract) combined with LVX): 0.25 µg/mL
combined-use MIC (strain A1, EA (water extract) with LVX): 0.0625 µg/mL
combined-use MIC (strain A2, EA (10% ethanol extract) + LVX combined): 8 µg/mL
combined-use MIC (strain A2, EA (60% ethanol extract) + LVX combined): 16 µg/mL
combined-use MIC (strain A2, EA (P. clypearia 95% ethanol extract) combined with LVX): 8 µg/mL
combined-use MIC (strain A2, EA (water extract) with LVX): 16 µg/mL
combined-use MIC (strain A3, EA (10% ethanol extract) + LVX combined): 2 µg/mL
combined-use MIC (strain A3, EA (60% ethanol extract) + LVX combined): 0.0625 µg/mL
combined-use MIC (strain A3, EA (P. clypearia 95% ethanol extract) combined with LVX): 2 µg/mL
combined-use MIC (strain A3, EA (water extract) with LVX): 2 µg/mL
combined-use MIC (strain A4, EA (10% ethanol extract) + LVX combined): 0.0625 µg/mL
combined-use MIC (strain A4, EA (60% ethanol extract) + LVX combined): 0.0625 µg/mL
combined-use MIC (strain A4, EA (P. clypearia 95% ethanol extract) combined with LVX): 0.0625 µg/mL
combined-use MIC (strain A4, EA (water extract) with LVX): 0.0625 µg/mL
combined-use MIC (strain A5, EA (10% ethanol extract) + LVX combined): 2 µg/mL
combined-use MIC (strain A5, EA (60% ethanol extract) + LVX combined): 4 µg/mL
combined-use MIC (strain A5, EA (water extract) with LVX): 1 µg/mL
combined-use MIC (strain A6, EA (10% ethanol extract) + LVX combined): 4 µg/mL
combined-use MIC (strain A6, EA (60% ethanol extract) + LVX combined): 4 µg/mL
combined-use MIC (strain A6, EA (P. clypearia 95% ethanol extract) combined with LVX): 4 µg/mL
combined-use MIC (strain A6, EA (water extract) with LVX): 4 µg/mL
combined-use MIC (strain A7, EA (10% ethanol extract) + LVX combined): 4 µg/mL
combined-use MIC (strain A7, EA (60% ethanol extract) + LVX combined): 4 µg/mL
combined-use MIC (strain A7, EA (P. clypearia 95% ethanol extract) combined with LVX): 4 µg/mL
combined-use MIC (strain A7, EA (water extract) with LVX): 4 µg/mL
combined-use MIC (strain A8, EA (10% ethanol extract) + LVX combined): 2 µg/mL
combined-use MIC (strain A8, EA (60% ethanol extract) + LVX combined): 4 µg/mL
combined-use MIC (strain A8, EA (P. clypearia 95% ethanol extract) combined with LVX): 2 µg/mL
combined-use MIC (strain A8, EA (water extract) with LVX): 4 µg/mL
combined-use MIC (strain A9, EA (10% ethanol extract) + LVX combined): 0.0625 µg/mL
combined-use MIC (strain A9, EA (60% ethanol extract) + LVX combined): 0.0625 µg/mL
combined-use MIC (strain A9, EA (P. clypearia 95% ethanol extract) combined with LVX): 0.0625 µg/mL
combined-use MIC (strain A9, EA (water extract) with LVX): 0.0625 µg/mL
combined-use MIC (strain A10, EA (10% ethanol extract) + LVX combined): 8 µg/mL
combined-use MIC (strain A10, EA (60% ethanol extract) + LVX combined): 0.0625 µg/mL
combined-use MIC (strain A10, EA (P. clypearia 95% ethanol extract) combined with LVX): 2 µg/mL
combined-use MIC (strain A10, EA (water extract) with LVX): 8 µg/mL
combined-use MIC (strain A11, EA (10% ethanol extract) + LVX combined): 2 µg/mL
combined-use MIC (strain A11, EA (60% ethanol extract) + LVX combined): 4 µg/mL
combined-use MIC (strain A11, EA (P. clypearia 95% ethanol extract) combined with LVX): 4 µg/mL
combined-use MIC (strain A11, EA (water extract) with LVX): 2 µg/mL
combined-use MIC (strain A12, EA (10% ethanol extract) + LVX combined): 8 µg/mL
combined-use MIC (strain A12, EA (60% ethanol extract) + LVX combined): 1 µg/mL
combined-use MIC (strain A12, EA (P. clypearia 95% ethanol extract) combined with LVX): 1 µg/mL
combined-use MIC (strain A12, EA (water extract) with LVX): 2 µg/mL
combined-use MIC (strain A13, EA (10% ethanol extract) + LVX combined): 8 µg/mL
combined-use MIC (strain A13, EA (60% ethanol extract) + LVX combined): 0.0625 µg/mL
combined-use MIC (strain A13, EA (P. clypearia 95% ethanol extract) combined with LVX): 2 µg/mL
combined-use MIC (strain A13, EA (water extract) with LVX): 8 µg/mL
combined-use MIC (strain A14, EA (10% ethanol extract) + LVX combined): 8 µg/mL
combined-use MIC (strain A14, EA (60% ethanol extract) + LVX combined): 8 µg/mL
combined-use MIC (strain A14, EA (P. clypearia 95% ethanol extract) combined with LVX): 8 µg/mL
combined-use MIC (strain A14, EA (water extract) with LVX): 8 µg/mL
combined-use MIC (strain A15, EA (10% ethanol extract) + LVX combined): 16 µg/mL
combined-use MIC (strain A15, EA (60% ethanol extract) + LVX combined): 0.0625 µg/mL
combined-use MIC (strain A15, EA (P. clypearia 95% ethanol extract) combined with LVX): 2 µg/mL
combined-use MIC (strain A15, EA (water extract) with LVX): 0.0625 µg/mL
combined-use MIC (strain A16, EA (10% ethanol extract) + LVX combined): 4 µg/mL
combined-use MIC (strain A16, EA (60% ethanol extract) + LVX combined): 4 µg/mL
combined-use MIC (strain A16, EA (P. clypearia 95% ethanol extract) combined with LVX): 4 µg/mL
combined-use MIC (strain A16, EA (water extract) with LVX): 2 µg/mL
combined-use MIC (strain A17, EA (10% ethanol extract) + LVX combined): 4 µg/mL
combined-use MIC (strain A17, EA (60% ethanol extract) + LVX combined): 4 µg/mL
combined-use MIC (strain A17, EA (P. clypearia 95% ethanol extract) combined with LVX): 4 µg/mL
combined-use MIC (strain A17, EA (water extract) with LVX): 8 µg/mL
combined-use MIC (strain A18, EA (10% ethanol extract) + LVX combined): 4 µg/mL
combined-use MIC (strain A18, EA (60% ethanol extract) + LVX combined): 4 µg/mL
combined-use MIC (strain A18, EA (P. clypearia 95% ethanol extract) combined with LVX): 4 µg/mL
combined-use MIC (strain A18, EA (water extract) with LVX): 1 µg/mL
combined-use MIC (strain A19, EA (10% ethanol extract) + LVX combined): 2 µg/mL
combined-use MIC (strain A19, EA (60% ethanol extract) + LVX combined): 8 µg/mL
combined-use MIC (strain A19, EA (P. clypearia 95% ethanol extract) combined with LVX): 8 µg/mL
combined-use MIC (strain A19, EA (water extract) with LVX): 8 µg/mL
combined-use MIC (strain A20, EA (10% ethanol extract) + LVX combined): 4 µg/mL
combined-use MIC (strain A20, EA (60% ethanol extract) + LVX combined): 8 µg/mL
combined-use MIC (strain A20, EA (P. clypearia 95% ethanol extract) combined with LVX): 8 µg/mL
combined-use MIC (strain A20, EA (water extract) with LVX): 4 µg/mL
combined-use MIC (strain AS, EA (P. clypearia 95% ethanol extract) combined with LVX): 2 µg/mL
